The source of these data is US7601850B2, “Phenyl-thiophene type vitamin D receptor modulators” (Eli Lilly and Company, priority 2002, dated 2009).

The test system of the first assay is rat osteocalcin promoter. As to the kind of experiment: OCN (osteocalcin) promoter assay in RG-15 (ROS 17/2.8) cells. The format is cell-based.
Conditions: not given
As for the experimental part:
4. The OCN Promoter test is described in the “Assay” section of the Description, infra.
3. The OCN (Osteocalcin) Promoter Assay
The OCN Promoter Assay is an indicator and marker for osteoporosis. Desired assay results are EC50 less than or equal to 325 nM. Preferred assay results are less than 50 nM.
(3) Materials and Method for The OCN Promoter Assay:
The activation of osteocalcin by VDR ligands was evaluated in a rat osteoblast-like cell line RG-15 (ROS 17/2.8) stably expressing rat osteocalcin promoter fused with luciferase reporter gene. The stable cell lines were established as reported before (Activation of Osteocalcin Transcription involves interaction of protein kinase A- and Protein kinase C-dependent pathways. Boguslawski, G., Hale, L. V., Yu, X.-P., Miles, R. R., Onyia, J. E., Santerre R. F., Chandrasekhar, S. J Biol. Chem. 275, 999-1006, 2000). Confluent RG-15 cells maintained in DMEM/F-12 medium (3:1) containing 5% FBS, 300 µg/ml G418 and at 37° C. under 5% CO2/95% air atmosphere were trypsinized (0.25% trypsin) and plated into white opaque 96-well cell culture plates (25000 cells/well). After 24 hr, cells (in DMEM/F-12 medium+2% FBS) were treated with various concentrations of compounds, dissolved in DMSO. The final DMSO concentration remained at 0.01% (v/v). After 48 hr treatment, the medium was removed, cells were lysed with 50 µl of lysis buffer (From Luciferase reporter assay system, Roche Diagnostics, Indianapolis, Ind.) and assayed for luciferase activity using the Luciferase Reporter Gene Assay kit from Boehringer Mannheim as per manufacturer's specifications.
Turning to `CCC(CC)(c1ccc(OCC(O)C(C)(C)C)c(C)c1)c1cc(C)c(C(=O)N[C@H](C)C(=O)O)s1` (stereo partly drawn) [Ex. 57, D-2-[(5-{1-Ethyl-1-[4-(2-hydroxy-3,3-dimethyl-butoxy)-3-methyl-phenyl]-propyl}-3-methyl-thiophene-2-carbonyl)-amino]-propionic acid], the concentration for a half-maximal effect (EC50) came out at 115 nM.

Consider `CCC(CC)(c1ccc(OCC(O)C(C)(C)C)c(C)c1)c1cc(C)c(C(=O)N2CCC[C@H]2C(=O)O)s1` (stereo partly drawn) [Ex. 75, L-1-(5-{1-Ethyl-1-[4-(2-hydroxy-3,3-dimethyl-butoxy)-3-methyl-phenyl]-propyl}-3-methyl-thiophene-2-carbonyl)-pyrrolidine-2-carboxylic acid], for which the EC50 came out at 423 nM.

On to `CCC(CC)(c1ccc(OCC(O)C(C)(C)C)c(C)c1)c1cc(C)c(C(=O)N[C@@H](C(=O)O)C(C)C)s1` (stereo partly drawn) [Ex. 86, D-2-[(5-{1-Ethyl-1-[4-(2-hydroxy-3,3-dimethyl-butoxy)-3-methyl-phenyl]-propyl}-3-methyl-thiophene-2-carbonyl)-amino]-3-methyl-butyric acid], for which the EC50 is 205 nM.

On to `CCC(CC)(c1ccc(OCC(O)C(C)(C)C)c(C)c1)c1cc(C)c(C(=O)N[C@@H](C(=O)O)C(C)C)s1` (stereo partly drawn) [Ex. 87, D-2-[(5-{1-ethyl-1-[4-(2-hydroxy-3,3-dimethyl-butoxy)-3-methyl-phenyl]-propyl}-3-methyl-thiophene-2-carbonyl)-amino]-3-methyl-butyric acid], for which the concentration for a half-maximal effect (EC50) is above 1000 nM.

The same assay, now with this note: Rattus norvegicus.
For the compound `CCC(CC)(c1ccc(OCC(O)C(C)(C)C)c(C)c1)c1cc(C)c(C(=O)N(C)OC)s1` (stereo not drawn) [Ex. 42, 5-{1-Ethyl-1-[4-(2-hydroxy-3,3-dimetliyl-butyoxy)-3-methyl-phenyl]-propyl}-3methyl-thiophene-2-carboxylic acid methoxy-methyl-amide], the 50% effective concentration (EC50) is 33.5 nM.

For `CCC(CC)(c1ccc(OCC(O)C(C)(C)C)c(C)c1)c1cc(C)c(C(=O)NCC(=O)OC)s1` (stereo not drawn) [Ex. 46, 2-[5-{1-Ethyl-1-{4-(2-hydroxy-3,3-dimethyl-butyoxy)-3-methyl-phenyl-propyl}-3-methyl-thiophene-2-carbonyl)-amino]-acetic acid methyl ester], the EC50 is 43.6 nM.

As for `CCC(CC)(c1ccc(OCC(O)C(C)(C)C)c(C)c1)c1cc(C)c(C(=O)NCC(=O)O)s1` (stereo not drawn) [Ex. 47, 2-[5-{1-Ethyl-1-{4-(2-hydroxy-3,3-dimethyl-butyoxy)-3-methyl-phenyl-propyl}-3-methyl-thiophene-2-carbonyl)-amino]-acetic acid], the half-maximal effective concentration (EC50) was determined as 27.7 nM.

`CCC(O)(CC)COc1ccc(C(CC)(CC)c2cc(C)c(C(=O)O)s2)cc1C` [Ex. 51, 5-{1-Ethyl-1-[4-(2-ethyl-2-hydroxy-butoxy)-3-methyl-phenyl]-propyl}-3-methyl-thiophene-2-carboxylic acid]: the EC50 is 781 nM.

With `CCC(O)(CC)COc1ccc(C(CC)(CC)c2cc(C)c(C(=O)NCC(=O)O)s2)cc1C` [Ex. 53, 2-[(5-{1-Ethyl-1-[4-(2-ethyl-2-hydroxy-butoxy)-3-methyl-phenyl]-propyl}-3-methyl-thiophene-2-carbonyl)-amino]-acetic acid], the EC50 amounted to 267 nM.

Consider `CCC(CC)(c1ccc(OCC(O)C(C)(C)C)c(C)c1)c1cc(C)c(C(=O)N[C@@H](CC(=O)O)C(=O)O)s1` (stereo partly drawn) [Ex. 59, L-2-[(5-{1-Ethyl-1-[4-(2-hydroxy-3,3-dimethyl-butoxy)-3-methyl-phenyl]-propyl}-3-methyl-thiophene-2-carbonyl)-amino]-succinic acid], for which the concentration for a half-maximal effect (EC50) amounted to 319 nM.

With `CCC(C)[C@H](NC(=O)c1sc(C(CC)(CC)c2ccc(OCC(O)C(C)(C)C)c(C)c2)cc1C)C(=O)OC` (stereo partly drawn) [Ex. 68, L-2-[(5-{1-Ethyl-1-[4-(2-hydroxy-3,3-dimethyl-butoxy)-3-methyl-phenyl]-propyl}-3-methyl-thiophene-2-carbonyl)-amino]-3-methyl-pentanoic acid methyl ester], the concentration giving a half-maximal response (EC50) came to 56 nM.

As to `CCC(C)[C@H](NC(=O)c1sc(C(CC)(CC)c2ccc(OCC(O)C(C)(C)C)c(C)c2)cc1C)C(=O)O` (stereo partly drawn) [Ex. 69, L-2-[(5-{1-Ethyl-1-[4-(2-hydroxy-3,3-dimethyl-butoxy)-3-methyl-phenyl]-propyl}-3-methyl-thiophene-2-carbonyl)-amino]-3-methyl-pentanoic acid], the EC50 turned out to be 487 nM.

For `CCC(CC)(c1ccc(OCC(O)C(C)(C)C)c(C)c1)c1cc(C)c(C(=O)N2CCC[C@@H]2C(=O)O)s1` (stereo partly drawn) [Ex. 81, D-1-(5-{1-ethyl-1-[4-(2-hydroxy-3,3-dimethyl-butoxy)-3-methyl-phenyl]-propyl}-3-methyl-thiophene-2-carbonyl)-pyrrolidine-2-carboxylic acid], the concentration giving a half-maximal response (EC50) was 200 nM.

For the compound `CCC(CC)(c1ccc(OCC(O)C(C)(C)C)c(C)c1)c1ccc(C(=O)O)s1` (stereo not drawn) [Ex. 88, 3′-[4-(2-hydroxy-3,3-dimethylbutoxy)-3-methylphenyl]-3′-[5-carboxy-thiophen-2-yl]pentane], the EC50 was 169 nM.

For the compound `CCC(CC)(c1ccc(OCC(=O)C(C)(C)C)c(C(C)C)c1)c1ccc(C(=O)OC)s1` [Ex. 91, 3′-[4-(2-oxo-3,3-dimethylbutoxy)-3-(1-methylethyl)phenyl]-3′-[5-methoxycarbonyl-thiophen-2-yl]pentane], the concentration giving a half-maximal response (EC50) was 212 nM.

In the case of `CCc1cc(C(CC)(CC)c2ccc(C(=O)O)s2)ccc1OCC(C)(O)C(C)(C)C` (stereo not drawn) [Ex. 107, 3′-[4-(2-hydroxy-2,3,3-trimethylbutoxy)-3-ethylphenyl]-3′-[5-carboxy-thiophen-2-yl]pentane], the EC50 was 42.3 nM.

Regarding `CCCc1cc(C(CC)(CC)c2ccc(C(=O)O)s2)ccc1OCC(C)(O)C(C)(C)C` (stereo not drawn) [Ex. 111, 3′-[4-(2-hydroxy-2,3,3-trimethylbutoxy)-3-n-propylphenyl]-3′-[5-carboxy-thiophen-2-yl]pentane], the concentration for a half-maximal effect (EC50) amounted to 34.5 nM.

In the case of `CCC(CC)(c1ccc(OCC(C)(O)C(C)(C)C)c(OC)c1)c1ccc(C(=O)N[C@@H](C)C(=O)O)s1` (stereo partly drawn) [Ex. 115, d-3′-[4-(2-hydroxy-2,3,3-trimethylbutoxy)-3-methoxyphenyl]-3′-[5-(carboxy-1-ethylamino)carbonyl-thiophen-2-yl]pentane], the EC50 came to 19.9 nM.

Consider `CCC(CC)(c1ccc(OCC(=O)C(C)(C)C)c(C)c1)c1cc(C)c(C(=O)N(C)CC(=O)O)s1` [Ex. 118, N-methyl-2-[(5-{1-[4-(3,3-Dimethyl-2-oxo-butoxy)-3-methyl-phenyl]-1-ethyl-propyl}-3-methyl-thiophene-2-carbonyl)-methylamino]-acetic acid], for which the EC50 worked out at 32.2 nM.

For the compound `CCC(CC)(c1ccc(OCC(O)C(C)(C)C)c(C)c1)c1cc(C)c(C(=O)N(C)CC(=O)O)s1` (stereo not drawn) [Ex. 123, N-2-[(5-{1-ethyl-1-[4-(2-hydroxy-3,3-dimethyl-butoxy)-3-methyl-phenyl]-propyl}-3-methyl-thiophene-2-carbonyl)-methylamino]-acetic acid], the concentration giving a half-maximal response (EC50) came to 475 nM.

`CCC(CC)(c1ccc(OCC(O)C(C)(C)C)c(C)c1)c1cc(C)c(CN(CC(=O)O)C(C)=O)s1` (stereo not drawn) [Ex. 130, 2-[N-acetyl-(5-{1-ethyl-1-[4-(2-hydroxy-3,3-dimethyl-butoxy)-3-methyl-phenyl]-propyl}-3-methyl-thiophen-2-ylmethyl)-amino]-acetic acid]: the half-maximal effective concentration (EC50) is 49.7 nM.

Turning to `CCC(CC)(c1ccc(OCC(=O)C(C)(C)C)c(C)c1)c1cc(C)c(CN(CC(=O)O)C(C)=O)s1` [Ex. 133, 2-[N-Acetyl-(5-{1-[4-(3,3-dimethyl-2-oxo-butoxy)-3-methyl-phenyl]-1-ethyl-propyl}-3-methyl-thiophen-2-yl-methyl)-amino]-acetic acid], the EC50 was determined as 49.2 nM.

On to `CCC(CC)(c1ccc(OCC(O)C(C)(C)C)c(C)c1)c1cc(C)c(S(=O)(=O)NCC(=O)O)s1` (stereo not drawn) [Ex. 137], for which the half-maximal effective concentration (EC50) amounted to 24.2 nM.

Regarding `CCC(CC)(c1ccc(OCC(=O)C(C)(C)C)c(C)c1)c1cc(C)c(S(=O)(=O)NCC(=O)O)s1` [Ex. 139], the EC50 is 31 nM.

With `CCOC(=O)CCNS(=O)(=O)c1sc(C(CC)(CC)c2ccc(OCC(O)C(C)(C)C)c(C)c2)cc1C` (stereo not drawn) [Ex. 140], the concentration giving a half-maximal response (EC50) stood at 72.5 nM.

For `CCC(CC)(c1ccc(OCC(=O)C(C)(C)C)c(C)c1)c1cc(C)c(S(=O)(=O)NCCC(=O)O)s1` [Ex. 144], the EC50 amounted to 29.2 nM.

`CCC(CC)(c1ccc(OCC(=O)C(C)(C)C)c(C)c1)c1cc(C)c(S(=O)(=O)N[C@H](C)C(=O)O)s1` [Ex. 146]: the EC50 was found to be 27.7 nM.

With `CCC(CC)(c1ccc(OCC(=S)C(C)(C)C)c(C)c1)c1cc(C)c(S(=O)(=O)N[C@H](C)C(=O)O)s1` [Ex. 147], the EC50 was 128 nM.

Take `CCC(CC)(c1ccc(OCC(O)C(C)(C)C)c(C)c1)c1cc(C)c(S(=O)(=O)NC(C)(C)C(=O)OC)s1` (stereo not drawn) [Ex. 148]: the concentration for a half-maximal effect (EC50) was found to be 236 nM.

On to `CCC(CC)(c1ccc(OCC(O)C(C)(C)C)c(C)c1)c1cc(C)c(S(=O)(=O)Nc2ccccc2C(=O)O)s1` (stereo not drawn) [Ex. 149], for which the EC50 stood at 98.3 nM.

Take `CCC(CC)(c1ccc(OCC(O)C(C)(C)C)c(C)c1)c1cc(C)c(S(=O)(=O)N[C@H](C)C(=O)OC)s1` (stereo partly drawn) [Ex. 150]: the EC50 turned out to be 55.2 nM.

As for `CCC(CC)(c1ccc(OCC(O)C(C)(C)C)c(C)c1)c1cc(C)c(S(=O)(=O)N[C@H](C)C(=O)O)s1` (stereo partly drawn) [Ex. 151], the EC50 was 48.2 nM.

Regarding `CCC(CC)(c1ccc(OCC(O)C(C)(C)C)c(C)c1)c1ccc(S(=O)(=O)NCC(=O)O)s1` (stereo not drawn) [Ex. 153], the concentration for a half-maximal effect (EC50) was determined as 187 nM.
